For the assay, the target named is T1, p40PX (GST-p40PX, aa 1-148) (Homo sapiens, UniProt Q15080).
T1 construct: gene NCF4; PX domain, residues 1-148, N-terminal GST fusion (pGEX; glutathione-purified, detected with anti-GST), E. coli
T1 sequence (Q15080 1-148): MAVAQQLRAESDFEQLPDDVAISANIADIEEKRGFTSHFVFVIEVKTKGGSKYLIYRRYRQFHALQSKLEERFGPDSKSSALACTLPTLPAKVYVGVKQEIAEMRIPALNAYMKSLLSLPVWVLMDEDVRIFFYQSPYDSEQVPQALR
Briefly: SPR, Biacore […], L1 chip with liposomes. It is filed as binding. As to conditions: PC:PE:PI(3)P 75:20:5 liposomes, PC/PE control subtracted; 150 mM NaCl, 50 mM HEPES pH 7.5, 25 °C; own-purified protein.

As usually defined, the Kd is the equilibrium constant for the complex coming apart. Read a high Kd as weaker binding.

`CCCCCCCCCCCCCCCC(=O)OC[C@H](COP(=O)(O)O[C@@H]1[C@H](O)[C@H](OP(=O)(O)O)[C@@H](O)[C@H](O)[C@H]1O)OC(=O)CCCCCCCCCCCCCCC` [PI(3)P-diC16, D-myo-phosphatidylinositol 3-phosphate di-C16] registered a Kd of 195 nM.
